These results are taken from US11129820B2, “Ferroportin-inhibitor salts” (Vifor (International) AG, priority 2017, dated 2021).

The test concerns Hbb th3/+ mice. The test is described as follows: Mouse model of β-thalassemia intermedia (Hbb th3/+ mice). The settings on record: for Decrease in RDW by 20/60 mg/kg compound / Decrease in ^58Fe spleen iron content by 20/60 mg/kg compound / Decrease in blood reticulocyte counts by 20/60 mg/kg compound / Decrease in leukocyte counts by 20/60 mg/kg compound / Decrease in serum erythropoietin by 20/60 mg/kg compound / Increase in blood erythrocyte counts by 20/60 mg/kg compound / Increase in hematocrit by 20/60 mg/kg compound / Prevention of liver ^58Fe loading by 20/60 mg/kg / Decrease in serum iron by 20/60 mg/kg compound / Decreased in ROS in bone marrow erythrocytes / Decrease in relative spleen weight by 20/60 mg/kg: % change to vehicle; for Correction of anemia at day 20-48 by 20/60 mg/kg: hemoglobin difference to vehicle; for Decrease in serum iron by 20/60 mg/kg compound: dosed for 3 h. In kind it is in vivo. The procedure: The efficacy of Fpn inhibitors is investigated using a mouse model of transfusion-independent β-thalassemia. Mice with heterozygous deletion of β 1 and β 2 globin genes (called Hbb th3/+ mice) develop transfusion-independent anemia, ineffective erythropoiesis, splenomegaly and secondary iron overload in spleen, liver and kidneys. […] Hbb th3/+ mice are dosed twice daily with either compound at 20 or 60 mg/kg or with methylcellulose (10 ml/kg, Sigma, Cat. 274429) as a vehicle. Between both doses mice have access to drinking water supplemented with 1 mM ^58Fe(II)-sulfate (Vifor Pharma, Batch No. ROR 3096) and 10 mM ascorbic acid (Sigma, Cat. 795437) for 6 h. The concentration of ^58Fe(II)-Sulfate supplied in the drinking water is adjusted to substitute for intake of standard rodent diet with iron content of 250 ppm. Water without ^58Fe(II)-Sulfate and ascorbic acid is provided during the remaining 18 h. Dosing of Fpn inhibitors or vehicle followed by exposure to iron-containing water is repeated for 20 to 46 days in individual experiments.
Additional hematologic parameters are measured in terminal blood using automated blood cell analyzer.
The inefficient erythropoiesis of Hbb th3/+ mice causes excessive proliferation of erythroid precursors in spleen, leading to splenomegaly.
Elevated erythropoietin levels in Hbb th3/+ mice induce overexpression of erythroferrone, an erythroid regulator hormone known to suppress hepcidin (Kautz L. et al, Nat. Genet., 2014). […] Erythroferrone is produced by erythrocyte precursors proliferating massively in spleens of Hbb th3/+ mice as a consequence of extramedullar erythropoiesis.
Increased iron demand due to inefficient erythropoiesis and chronically low hepcidin levels in patients with thalassemia causes organ iron loading and associated morbidities, such as hepatocellular carcinoma and heart failure (Rivella S. Haematologica, 2015). Hbb th3/+ mice absorb excessive amounts of iron as a consequence of inadequately low hepcidin levels relative to the high iron content in liver, spleen and kidney and increased ferroportin expression in duodenum (Gardenghi S., Blood, 2007).
Additionally, reactive oxygen species (ROS) are detected in bone marrow cells using a fluorescent indicator, CM-H2DCFDA (Thermo Fisher Scientific, Cat. C6827).
Data are expressed as difference to the vehicle control group for hemoglobin and as % change to the vehicle control group for all other parameter shown

Where [1] appears, read: 20 mg/kg twice daily for 20-46 days.
Where [2] appears, read: 60 mg/kg twice daily for 20-46 days.
Setting [3] is: first value of the pair (20 mg/kg; dose not printed in this line).
Setting [4] is: second value of the pair (60 mg/kg; dose not printed in this line).

In the case of `O=C(NCc1ncccc1F)c1cnc(CCNCCc2nc3ccccc3[nH]2)o1` [Example Compound No. 1], under setting [1], the “Decrease in RDW by 20/60 mg/kg compound” value turned out to be 3%, the “Decrease in ^58Fe spleen iron content by 20/60 mg/kg compound” value (shortened to “Decrease in ^58Fe spleen iron content”) is 14%, the “Decrease in blood reticulocyte counts by 20/60 mg/kg compound” value (“Decrease in blood reticulocyte counts” below) is recorded as 8% and the “Decrease in leukocyte counts by 20/60 mg/kg compound” value (from here on “Decrease in leukocyte counts”) is reported as 32%. For the same compound, under setting [1], the “Decrease in serum erythropoietin by 20/60 mg/kg compound” value (shortened to “Decrease in serum erythropoietin”) was 64%, the “Increase in blood erythrocyte counts by 20/60 mg/kg compound” value (“Increase in blood erythrocyte counts” for short) is listed as 4%, the “Increase in hematocrit by 20/60 mg/kg compound” value (from here on “Increase in hematocrit”) worked out at 0% and the “Prevention of liver ^58Fe loading by 20/60 mg/kg” value (“Prevention of liver ^58Fe loading” below) is reported as 12%. The Correction of anemia at day 20-48 by 20/60 mg/kg (20 mg/kg twice daily) amounted to 6 g/L. In addition, where the note is “20 mg/kg”, the “Decrease in serum iron by 20/60 mg/kg compound” value (“Decrease in serum iron” for short) turned out to be 49%. Further, under setting [2], the “Decrease in RDW by 20/60 mg/kg compound” value turned out to be 16%, the “Decrease in ^58Fe spleen iron content” value is reported as 48%, the “Decrease in blood reticulocyte counts” value amounted to 39% and the “Decrease in leukocyte counts” value turned out to be 44%. Under setting [2], the “Decrease in serum erythropoietin” value came to 78%, the “Increase in blood erythrocyte counts” value was found to be 8%, the “Increase in hematocrit” value was 4% and the “Prevention of liver ^58Fe loading” value is on record as 40%. For the same compound, for the setting “60 mg/kg twice daily”, the Correction of anemia at day 20-48 by 20/60 mg/kg was determined as 20 g/L. Further, the “Decrease in serum iron” value (60 mg/kg) is 66%. For the same compound, under setting [3], the “Decreased in ROS in bone marrow erythrocytes” value (“Decreased in ROS” below) is listed as 20%. Further, under setting [4], the “Decreased in ROS” value was found to be 45%.

As for `O=C(NCc1ncccc1F)c1cnc(C2CN(CCc3nc4ccccc4[nH]3)C2)o1` [Example Compound No. 2], under setting [1], the “Decrease in RDW by 20/60 mg/kg compound” value amounted to 0%, the “Decrease in ^58Fe spleen iron content” value was 13%, the “Decrease in blood reticulocyte counts” value worked out at 0% and the “Decrease in leukocyte counts” value stood at 29%. Besides, under setting [1], the “Decrease in relative spleen weight by 20/60 mg/kg” value is 16%, the “Decrease in serum erythropoietin” value was determined as 4%, the “Increase in blood erythrocyte counts” value came out at 0% and the “Increase in hematocrit” value worked out at 0%. For the same compound, under setting [1], the “Prevention of liver ^58Fe loading” value is reported as 14%. Besides, the “Correction of anemia at day 20-48 by 20/60 mg/kg” value (shortened to “Correction of anemia”) (20 mg/kg twice daily) came to 3 g/L. Also, for the setting “20 mg/kg”, the “Decrease in serum iron” value was found to be 50%. Under setting [2], the “Decrease in RDW by 20/60 mg/kg compound” value amounted to 15%, the “Decrease in ^58Fe spleen iron content” value worked out at 40%, the “Decrease in blood reticulocyte counts” value was 11% and the “Decrease in leukocyte counts” value is listed as 55%. Also, under setting [2], the “Decrease in relative spleen weight by 20/60 mg/kg” value was determined as 47%, the “Decrease in serum erythropoietin” value was 27%, the “Increase in blood erythrocyte counts” value turned out to be 33% and the “Increase in hematocrit” value is on record as 15%. Besides, under setting [2], the “Prevention of liver ^58Fe loading” value stood at 47%. For the setting “60 mg/kg twice daily”, the “Correction of anemia” value is 11 g/L. Further, the “Decrease in serum iron” value (60 mg/kg) came out at 69%. In addition, the “Decreased in ROS” value under setting [3] was found to be 13%. Further, the “Decreased in ROS” value under setting [4] turned out to be 65%.

`O=C(NCc1ncccc1F)c1csc(CCNCc2nc3ccccc3[nH]2)n1` [Example Compound No. 40]: under setting [1], the “Decrease in ^58Fe spleen iron content” value came to 19%, the “Decrease in blood reticulocyte counts” value worked out at 19%, the “Decrease in leukocyte counts” value amounted to 0% and the “Increase in blood erythrocyte counts” value stood at 2%. Under setting [1], the “Increase in hematocrit” value came out at 0% and the “Prevention of liver ^58Fe loading” value was determined as 20%. The “Correction of anemia” value (20 mg/kg twice daily) came to 6 g/L. Further, the “Decrease in serum iron” value (20 mg/kg) amounted to 28%. Also, under setting [2], the “Decrease in ^58Fe spleen iron content” value is reported as 51%, the “Decrease in blood reticulocyte counts” value worked out at 43%, the “Increase in blood erythrocyte counts” value was 22% and the “Increase in hematocrit” value was 1%. Further, the “Prevention of liver ^58Fe loading” value under setting [2] is listed as 48%. Also, the “Correction of anemia” value (60 mg/kg twice daily) came to 13 g/L. For the same compound, the “Decrease in serum iron” value (60 mg/kg) is 58%.
